Test results from the supplement of paper PMC8882468.

What was measured:
Assay in all cases: CTG-3D luminescence at 96 h relative to day-0 seeding control (ratio to day 0); higher = more growth / less cytotoxicity; PDxO 3D drug screen (set 2), 96 h, CTG-3D normalised to day-0 seeding control.
HCI-023 = test system: HCI-023 (organoid from a triple-negative breast cancer xenograft)
HCI-019 = test system: HCI-019 (organoid from a triple-negative breast cancer xenograft)
HCI-016 = test system: HCI-016 (organoid from a triple-negative breast cancer xenograft)
HCI-024 = test system: HCI-024 (organoid from a breast cancer xenograft)
HCI-017.E2 = test system: HCI-017.E2 (organoid from an ER-positive breast cancer xenograft)

Nc1cc(C(F)(F)F)c(-c2cc(N3CCOCC3)nc(N3CCOCC3)n2)cn1 [buparlisib]
CTG-3D luminescence at 96 h
Conditions | 12.5 pM | 0.00025 µM | 0.005 µM | 0.1 µM | 1 µM | 10 µM | 100 µM | 625 fM
HCI-016, days in culture: 305 | 2.89 | 2.88 | 2.23 | 4.87 | 1.89 | 0.444 | 0.606 | 5.12
HCI-016, days in culture: 327 | 1.19 | 1.21 | 1.32 | 2.02 | 1.16 | 0.497 | 0.431 | 1.23
HCI-016, days in culture: 341 | 2.17 | 1.78 | 2.04 | 2.44 | 1.48 | 0.65 | 0.484 | 2.59
HCI-016, days in culture: 397 | 1.77 | 2.39 | 1.33 | 2.74 | 1.41 | 0.71 | 0.511 | 2.25
HCI-017.E2, days in culture: 85 | 2.1 | 1.79 | 1.67 | 1.9 | 0.668 | 0.194 | 0.256 | 2.53
HCI-019, days in culture: 173 | 2.34 | 1.59 | 2.11 | 1.58 | 1.45 | 0.425 | 0.353 | 1.61
HCI-019, days in culture: 194 | 1.92 | 1.72 | 2.05 | 2.27 | 0.78 | 0.454 | 0.358 | 3.95
HCI-019, days in culture: 215 | 1.75 | 1.27 | 1.46 | 1.85 | 0.763 | 0.382 | 0.188 | 1.2
HCI-023, days in culture: 223 | 2.1 | 2.58 | 1.97 | 2.26 | 0.929 | 0.895 | 1.04 | 2.64
HCI-023, days in culture: 238 | 1.41 | 1.77 | 1.57 | 1.4 | 1.23 | 0.672 | 0.628 | 1.46
HCI-023, days in culture: 252 | 2.06 | 2.07 | 1.65 | 2.23 | 1.58 | 0.8 | 0.794 | 2.06
HCI-024, days in culture: 202 | 0.94 | 1.8 | 0.863 | 1.75 | 0.649 | 0.995 | 0.453 | 1.69
HCI-024, days in culture: 231 | 0.962 | 1.28 | 0.905 | 1.7 | 0.751 | 0.659 | 0.357 | 1.23
HCI-024, days in culture: 254 | 1.89 | 0.93 | 0.779 | 1.12 | 1.08 | 0.637 | 0.959 | 2.39

HCI-017.E2
Conditions | CTG-3D luminescence at 96 h
12.5 pM | 1.864
0.00025 µM | 2.59
0.005 µM | 2.12
0.1 µM | 2.15
1 µM | 0.869
10 µM | 0.263
100 µM | 0.208
625 fM | 2.26

CC(=O)O[C@@]12CO[C@@H]1C[C@H](O)[C@@]1(C)C(=O)[C@H](O)C3=C(C)[C@@H](OC(=O)[C@H](O)[C@@H](NC(=O)OC(C)(C)C)c4ccccc4)C[C@@](O)([C@@H](OC(=O)c4ccccc4)[C@H]21)C3(C)C [docetaxel]
CTG-3D luminescence at 96 h
Conditions | 12.5 pM | 0.00025 µM | 0.005 µM | 0.1 µM | 1 µM | 10 µM | 100 µM | 625 fM
HCI-016, days in culture: 305 | 1.51 | 1.9 | 1.03 | 1.42 | 0.985 | 0.955 | 0.0636 | 1.77
HCI-016, days in culture: 327 | 0.628 | 0.252 | 0.393 | 0.838 | 0.432 | 0.497 | 0.0762 | 0.906
HCI-016, days in culture: 341 | 1.18 | 1.18 | 0.786 | 0.962 | 0.862 | 0.954 | 0.11 | 1.59
HCI-016, days in culture: 397 | 1.74 | 1.18 | 0.667 | 0.792 | 0.484 | 0.997 | 0.19 | 2.27
HCI-017.E2, days in culture: 85 | 2.47 | 1.92 | 0.986 | 0.975 | 0.797 | 0.598 | 0.154 | 2.7
HCI-019, days in culture: 173 | 1.24 | 0.84 | 0.655 | 1.38 | 0.99 | 0.699 | 0.368 | 0.768
HCI-019, days in culture: 194 | 1.66 | 2.03 | 0.858 | 0.59 | 0.552 | 0.764 | 0.27 | 3.06
HCI-019, days in culture: 215 | 1.52 | 0.972 | 0.281 | 0.399 | 0.342 | 0.484 | 0.0546 | 1.59
HCI-023, days in culture: 223 | 0.666 | 0.731 | 0.679 | 0.597 | 0.578 | 0.746 | 0.0587 | 0.745
HCI-023, days in culture: 238 | 0.654 | 0.598 | 0.69 | 0.7 | 0.901 | 0.651 | 0.265 | 0.619
HCI-023, days in culture: 252 | 1.03 | 0.858 | 0.757 | 1.04 | 0.812 | 1.27 | 0.603 | 1.14
HCI-024, days in culture: 202 | 0.822 | 0.868 | 0.82 | 1.17 | 0.844 | 1.08 | 0.0987 | 0.654
HCI-024, days in culture: 231 | 0.86 | 0.987 | 0.75 | 0.873 | 1.08 | 1.06 | 0.0745 | 1.06
HCI-024, days in culture: 254 | 0.926 | 1.02 | 1.14 | 1.11 | 1.87 | 0.726 | 0.241 | 1.59

HCI-017.E2
Conditions | CTG-3D luminescence at 96 h
12.5 pM | 1.34
0.00025 µM | 1.47
0.005 µM | 1.2
0.1 µM | 1.36
1 µM | 1.14
10 µM | 0.78
100 µM | 0.13
625 fM | 1.38

COc1cccc2c1C(=O)c1c(O)c3c(c(O)c1C2=O)C[C@@](O)(C(=O)CO)C[C@@H]3O[C@H]1C[C@H](N)[C@@H](O)[C@H](C)O1 [epirubicin]
CTG-3D luminescence at 96 h
Conditions | 12.5 pM | 0.00025 µM | 0.005 µM | 0.1 µM | 1 µM | 10 µM | 100 µM | 625 fM
HCI-016, days in culture: 305 | 2.91 | 3.05 | 3.17 | 1.79 | 0.0989 | 0.0325 | -0.0142 | 3.33
HCI-016, days in culture: 327 | 0.93 | 0.767 | 0.985 | 1.49 | 0.0556 | 0.0566 | -0.00792 | 1.16
HCI-016, days in culture: 341 | 2.05 | 1.72 | 2.11 | 0.986 | 0.0279 | 0.103 | -0.00358 | 2.49
HCI-016, days in culture: 397 | 2 | 1.81 | 1.7 | 0.704 | 0.0199 | 0.108 | -0.000737 | 3
HCI-017.E2, days in culture: 85 | 2.09 | 2.02 | 1.7 | 2.1 | 0.743 | 1.02 | 0.0107 | 1.92
HCI-019, days in culture: 173 | 2.56 | 0.82 | 0.796 | 0.682 | 0.176 | 0.0215 | -0.00415 | 2.04
HCI-019, days in culture: 194 | 1.08 | 1.73 | 0.897 | 0.514 | 0.126 | 0.00997 | -0.00363 | 2.03
HCI-019, days in culture: 215 | 1.08 | 1.32 | 1.32 | 0.384 | 0.205 | 0.0145 | -0.000778 | 1.97
HCI-023, days in culture: 223 | 1.88 | 1.76 | 1.22 | 1.3 | 0.154 | 0.0393 | -0.00401 | 2.21
HCI-023, days in culture: 238 | 1.44 | 1.08 | 0.842 | 0.9 | 0.391 | 0.0393 | -0.00422 | 1.61
HCI-023, days in culture: 252 | 2.29 | 2.32 | 1.59 | 1.68 | 0.516 | 0.0524 | -0.00328 | 1.99
HCI-024, days in culture: 202 | 1.44 | 1.41 | 0.402 | 0.943 | 0.189 | 0.201 | 0.0124 | 0.718
HCI-024, days in culture: 231 | 1.26 | 1.41 | 1.2 | 0.91 | 0.331 | 0.141 | 0.0266 | 1.79
HCI-024, days in culture: 254 | 1.76 | 2 | 0.967 | 0.838 | 0.196 | 0.165 | 0.0227 | 1.93

HCI-017.E2
Conditions | CTG-3D luminescence at 96 h
12.5 pM | 2.04
0.00025 µM | 2.99
0.005 µM | 2.22
0.1 µM | 2.13
1 µM | 0.562
10 µM | 1.07
100 µM | 0.00216
625 fM | 2.33

CO[C@H]1C[C@@H]2CC[C@@H](C)[C@@](O)(O2)C(=O)C(=O)N2CCCC[C@H]2C(=O)O[C@H]([C@H](C)C[C@@H]2CC[C@@H](OCCO)[C@H](OC)C2)CC(=O)[C@H](C)/C=C(\C)[C@@H](O)[C@@H](OC)C(=O)[C@H](C)C[C@H](C)/C=C/C=C/C=C/1C [everolimus]
CTG-3D luminescence at 96 h
Conditions | 12.5 pM | 0.00025 µM | 0.005 µM | 0.1 µM | 1 µM | 10 µM | 100 µM | 625 fM
HCI-016, days in culture: 305 | 1.91 | 2.37 | 1.91 | 2.63 | 1.49 | 1.46 | -0.0112 | 3.94
HCI-016, days in culture: 327 | 0.724 | 1 | 1.4 | 1.68 | 0.673 | 1.5 | -0.00208 | 0.809
HCI-016, days in culture: 341 | 1.86 | 1.39 | 1.69 | 1.34 | 1.18 | 1.47 | -0.00301 | 2.31
HCI-016, days in culture: 397 | 2.02 | 1.53 | 1.5 | 1.31 | 0.567 | 0.757 | -0.000194 | 2.23
HCI-017.E2, days in culture: 85 | 2.06 | 1.86 | 1.32 | 0.959 | 0.595 | 0.493 | 0.00146 | 2.29
HCI-019, days in culture: 173 | 1.57 | 1.31 | 1.21 | 1.38 | 1.1 | 0.954 | 0.000122 | 1.63
HCI-019, days in culture: 194 | 1.27 | 0.886 | 1.15 | 1.13 | 1.33 | 0.725 | -0.00106 | 1.7
HCI-019, days in culture: 215 | 0.96 | 0.554 | 0.902 | 0.622 | 0.482 | 0.326 | 0.000571 | 1.76
HCI-023, days in culture: 223 | 2.04 | 1.82 | 1.17 | 1.19 | 0.991 | 1.28 | -0.00123 | 1.43
HCI-023, days in culture: 238 | 1.22 | 1.01 | 1 | 1.23 | 1.61 | 0.915 | -0.00183 | 1.32
HCI-023, days in culture: 252 | 1.97 | 1.75 | 1.51 | 1.44 | 1.55 | 1.91 | -0.00273 | 1.89
HCI-024, days in culture: 202 | 0.906 | 1.18 | 0.737 | 1.7 | 1.12 | 1.74 | 0.00395 | 1.12
HCI-024, days in culture: 231 | 0.783 | 1.17 | 0.961 | 1.01 | 0.971 | 1.11 | 0.000185 | 0.943
HCI-024, days in culture: 254 | 2.18 | 0.836 | 1.02 | 1.31 | 1.11 | 1.02 | 0.00153 | 2.4

HCI-017.E2
Conditions | CTG-3D luminescence at 96 h
12.5 pM | 1.59
0.00025 µM | 1.63
0.005 µM | 1.8
0.1 µM | 1.25
1 µM | 0.822
10 µM | 0.73
100 µM | 0.00266
625 fM | 1.99
